Like-named read-outs stand apart in the source and are kept apart here.
Columns and labels:
[1] = tested on: amnesia induced by scopolamine; assay: Multiple-trial passive avoidance: mnemic retention, amnesia induced by scopolamine; type: in vivo, male Sprague-Dawley rats; details: rats
Experimental: 4. Multiple-trial passive avoidance. The compounds of the present invention have been studied with the aim of
Columns 3 and 4 show the results obtained in the test used to evaluate the learning. The figures indicate the average number of trials needed for a control animal (group 1) or an animal treated (group 2) with the compound to learn to remain on the rubber mat for 180 seconds in order to avoid the electric shock. The results were analyzed by the Student test.

[2] = tested on: salivatory effect of oxotremorine; assay: Potentiation of the cholinergic effects of oxotremorine: salivatory (peripheral) effect; type: in vivo, male NMRI mice; details: mice
Experimental: (§1) 1. Potentiation of the cholinergic effects of oxotremorine. […] The degree of peripheral cholinergic activation is measured by the salivatory effect quantified by the following rating system:
score 1: a little saliva is found around the teeth:
score 2: the saliva forms a narrower band around the mouth;
score 4: the saliva wets a surface underneath the chin;
score 6: the saliva runs from the mouth, for example onto the forelegs.
The intermediate scores are not used, and the saliva is wiped away after each observation.
(§2) Male NMRI mice (20 to 25 g) are divided into four groups of five animals, that is to say: one control group and three treated groups. The compound to be tested is administered intraperitoneally (to the three treated groups) 20 minutes before the administration of the oxotremorine, at a dose which differs for each of the treated groups. […] For each of the groups, the individual scores recorded at each observation period are summed; this enables to plot a curve showing the sum of the scores as a function of time, which is characteristic for each group.
(§3) The mean values of the areas under the curves obtained for each of the treated groups are compared with the mean value of the area under the curve corresponding to the control group and is subjected to statistical analysis by the Mann-Whitney method. From this comparison, a "minimum active dose" can be determined. […]

[3] = tested on: tremogenic effect of oxotremorine; assay: Potentiation of the cholinergic effects of oxotremorine: tremogenic (central) effect; type: in vivo, male NMRI mice; details: mice
Experimental: as §1
The degree of central cholinergic activation is measured by the tremogenic effect quantified by the following rating system:
score 1: slight and periodic occasional tremors;
score 2: moderate and slight tremors often repeated;
score 4: accentuated tremors, but interrupted by periods of calm:
score 6: very accentuated and almost continuous tremors.
as §2, §3

[4] = tested on: effects of scopolamine on the band from 6.4 to 9.6 Hz in the EEG; assay: Inhibition of the effects of scopolamine on the electroencephalogram (EEG); type: in vivo, male albino Sprague-Dawley rats; parameters: inhibition: dose or concentration left out as unconfirmed
Experimental: Male albino Sprague-Dawley SPF rats (160 to 200 g) are used in this test. When the animals are 3 months old, 5 cortical electrodes are implanted permanently, aseptically and under a general anesthesia: one inert electrode, one left and one right frontal electrode, and one left and one right occipital electrode (P. ETEVENON, loc.cit.). The test is carried out when the animals are about 15 months old. In the meantime, the animals are kept in individual cages. They are given water and food ad libitum and are subjected to a regular daily cycle comprising a period of darkness between 6 o'clock in the evening and 6 o'clock in the morning. At the same time, the animals are progressively acclimatized to the cages of the sound-proof cabin which they will subsequently occupy for recording of the electroencephalograms, as well as to the experimental conditions, by intraperitoneal administration of placebo. The products are administered immediately before the EEG is recorded. The rats are divided into groups of 8 animals and 16 samples of the EEG spectra are recorded over 5 seconds (two EEG spectra per animal). The spectra obtained are then analyzed by computer (rapid Fourier transform), which enables the average of the 16 measurements performed to be determined for each group and the overall intensity of the EEG spectrum and the distribution of this intensity (in %) in the various frequency bands to be deduced for each animal. This operation (recording of the spectra) is repeated 9 times (total

[5] = tested on: hyperactivity induced by scopolamine; assay: Inhibition of hyperactivity induced by scopolamine; type: in vivo, male Sprague-Dawley rats; details: rats, administered more than 15 minutes before the measurements
Toxicity (Irwin's test) = type: in vivo; details: mice, intraperitoneal
Experimental: Progressive doses of the compound to be tested are administered intraperitoneally to groups of three mice until the lethal dose is reached (dose which causes the death of two animals out of three within 48 hours).

[6] = 20 minutes after administration at the minimum active dose

## CN1[C@@H]2C[C@@H](OC(=O)[C@H](CO)c3ccccc3)C[C@H]1[C@@H]1O[C@@H]12 [scopolamine]
[1]; group 3, scopolamine alone
  amnesing effect: very pronounced

## O=C1CCCN1CC#CCN1CCCC1 [oxotremorine]
[2]; Mus musculus, ip, intraperitoneal, read-out: minimum dose of oxotremorine which causes salivation
  minimal effective dose: ~0.05 mg/kg
[3]; Mus musculus, ip, intraperitoneal, read-out: minimum dose of oxotremorine which causes tremors
  minimal effective dose: ~0.05 mg/kg

## CNC(=O)Oc1ccc2c(c1)[C@]1(C)CCN(C)[C@@H]1N2C [physostigmine, reference compound]
[1]; i.p., group 4 vs. group 3
  influence on the amnesing effect of scopolamine: favorable action against the amnesing effect of scopolamine, similar to that of the compounds of the invention
[4]; Rattus norvegicus, ip, read-out: Inhibition (percentage of reduction in the increase in the intensity of the band from 6.4 to 9.6 Hz)
  inhibition: 76.8%
[4]; rats, i.p.
  inhibition of the effects which scopolamine exerts on the electroencephalogram: inhibit the effects which scopolamine exerts on the electroencephalogram
[5]
  inhibitory activity on scopolamine hyperactivity, administered more than 15 minutes before measurements: inactive

## CCCc1nc(NN(C)C)nc(N2CCOCC2)n1 [Compound 20, 2-(2,2-dimethylhydrazino)-4-morpholino-6-propyl-1,3,5-triazine]
Toxicity (Irwin's test)
  Lethal dose (death of two animals out of three within 48 hours): 799 mg/kg
[4]; Rattus norvegicus, ip; read-out: Inhibition (percentage of reduction in the increase in the intensity of the band from 6.4 to 9.6 Hz)
  inhibition: 66.7%

## COC(=O)C1=CCCN(C)C1 [arecoline, methyl 1,2,5,6-tetrahydro-1-methyl-3-pyridinecarboxylate]
[2]; [6]
  potentiation of the salivatory effect of oxotremorine 20 minutes after administration: gives no potentiation
[3]; [6]
  potentiation of the tremogenic effect of oxotremorine 20 minutes after administration: gives no potentiation

— patent publication US4956367A, “2-amino-4-morpholino-6-propyl-1,3,5-triazines” (U C B S.A., priority 1988, dated 1990)
